Source: the NIST ThermoML archive (doi:10.1016/j.jct.2006.09.007)
Numbers after ± are expanded uncertainties.

What was measured:
[1] = 101.3 kPa, Liquid
[2] = molar heat capacity at constant pressure; details: 298.15 K; 101.33 kPa; Liquid; Flow calorimetry
[3] = xn = mol fraction of the nth substance listed; details: 101.3 kPa, Liquid

COc1ccccc1 [anisole]
[1]
Details | mass density [kg/m3]
298.15 K | 988.98 ± 0.34
308.15 K | 978.7 ± 0.35

Details | molar heat capacity at constant pressure [J/K/mol]
[2] | 191.54 ± 0.39

N#Cc1ccccc1 [benzonitrile] + Cc1cc(C)cc(C)c1
[3]
Details | excess molar heat capacity, 298.15 K [J/K/mol] | mass density, 298.15 K [kg/m3] | mass density, 308.15 K [kg/m3]
x1 = 0.073 | – | 869.06 ± 0.46 | 860.02 ± 0.47
x1 = 0.0754 | 0.726 ± 0.052 | – | –
x1 = 0.1029 | 0.966 ± 0.052 | – | –
x1 = 0.1412 | – | 876.92 ± 0.43 | 867.88 ± 0.45
x1 = 0.1917 | – | 882.87 ± 0.41 | 873.78 ± 0.43
x1 = 0.2104 | 1.56 ± 0.054 | – | –
x1 = 0.283 | 1.84 ± 0.055 | – | –
x1 = 0.2955 | – | 895.5 ± 0.38 | 886.4 ± 0.39
x1 = 0.3596 | – | 903.59 ± 0.35 | 894.43 ± 0.37
x1 = 0.381 | 2.016 ± 0.055 | – | –
x1 = 0.4531 | – | 915.84 ± 0.32 | 906.58 ± 0.33
x1 = 0.4702 | 1.987 ± 0.055 | – | –
x1 = 0.5128 | – | 923.9 ± 0.3 | 914.75 ± 0.31
x1 = 0.5479 | 1.864 ± 0.055 | – | –
x1 = 0.6098 | – | 937.51 ± 0.27 | 928.28 ± 0.28
x1 = 0.6441 | 1.563 ± 0.054 | – | –
x1 = 0.7005 | – | 950.89 ± 0.23 | 941.57 ± 0.25
x1 = 0.712 | 1.3 ± 0.053 | – | –
x1 = 0.7895 | – | 964.64 ± 0.2 | 955.31 ± 0.21
x1 = 0.8092 | 0.861 ± 0.052 | – | –
x1 = 0.879 | – | 979.23 ± 0.17 | 969.79 ± 0.18
x1 = 0.9041 | 0.428 ± 0.051 | – | –
x1 = 0.9501 | 0.177 ± 0.05 | – | –
x1 = 0.9536 | – | 991.98 ± 0.15 | 982.49 ± 0.16
x1 = 1 | – | 1000.25 ± 0.13 | 990.67 ± 0.15

N#Cc1ccccc1 [benzonitrile] + CC(C)c1ccccc1
[3], x1 = 1
Details | mass density [kg/m3]
298.15 K | 1000.25 ± 0.13
308.15 K | 990.67 ± 0.15

N#Cc1ccccc1 [benzonitrile] + Cc1cccc(C)c1
[3], 298.15 K, Flow calorimetry
Details | excess molar heat capacity [J/K/mol]
x1 = 0.0568 | 0.522 ± 0.1
x1 = 0.0772 | 0.686 ± 0.1
x1 = 0.1671 | 1.299 ± 0.11
x1 = 0.2404 | 1.53 ± 0.11
x1 = 0.3272 | 1.727 ± 0.11
x1 = 0.4115 | 1.696 ± 0.11
x1 = 0.4878 | 1.66 ± 0.11
x1 = 0.5753 | 1.415 ± 0.11
x1 = 0.6422 | 1.272 ± 0.11
x1 = 0.7301 | 0.936 ± 0.1
x1 = 0.8157 | 0.683 ± 0.1
x1 = 0.887 | 0.377 ± 0.1
x1 = 0.9334 | 0.254 ± 0.1

mass density [kg/m3], [3]
Details | x1 = 0.0741 | x1 = 0.1804 | x1 = 0.316 | x1 = 0.4608 | x1 = 0.5438 | x1 = 0.6475 | x1 = 0.74 | x1 = 0.8816 | x1 = 0.899 | x1 = 1
298.15 K | 869.26 ± 0.46 | 883.15 ± 0.42 | 901.15 ± 0.36 | 920.81 ± 0.31 | 932.33 ± 0.28 | 947.01 ± 0.25 | 960.47 ± 0.21 | 981.74 ± 0.17 | 984.42 ± 0.16 | 1000.25 ± 0.13
308.15 K | 859.61 ± 0.47 | 873.5 ± 0.43 | 891.52 ± 0.38 | 911.17 ± 0.33 | 922.69 ± 0.3 | 937.4 ± 0.26 | 950.87 ± 0.23 | 972.18 ± 0.18 | 974.85 ± 0.18 | 990.67 ± 0.15

Cc1ccccc1C [1,2-dimethylbenzene] + N#Cc1ccccc1
[3], x2 = 0
Details | mass density [kg/m3]
298.15 K | 875.55 ± 0.47
308.15 K | 866.29 ± 0.48

N#Cc1ccccc1 [benzonitrile] + Cc1ccccc1C
[3]
Details | excess molar heat capacity, 298.15 K [J/K/mol] | mass density, 298.15 K [kg/m3] | mass density, 308.15 K [kg/m3]
x1 = 0.0394 | 0.448 ± 0.051 | – | –
x1 = 0.0781 | 0.829 ± 0.052 | – | –
x1 = 0.0815 | – | 884.98 ± 0.44 | 875.72 ± 0.45
x1 = 0.1262 | – | 890.21 ± 0.42 | 881 ± 0.43
x1 = 0.1398 | 1.273 ± 0.053 | – | –
x1 = 0.1604 | – | 894.21 ± 0.41 | 884.95 ± 0.42
x1 = 0.2299 | 1.689 ± 0.054 | – | –
x1 = 0.2579 | – | 905.68 ± 0.37 | 896.47 ± 0.38
x1 = 0.2803 | 1.799 ± 0.055 | – | –
x1 = 0.3687 | 1.875 ± 0.055 | – | –
x1 = 0.4054 | – | 923.32 ± 0.32 | 914.01 ± 0.33
x1 = 0.4391 | 1.792 ± 0.054 | – | –
x1 = 0.496 | – | 934.4 ± 0.29 | 925.13 ± 0.3
x1 = 0.5361 | – | 939.32 ± 0.27 | 929.98 ± 0.29
x1 = 0.5364 | 1.592 ± 0.054 | – | –
x1 = 0.611 | 1.376 ± 0.053 | – | –
x1 = 0.6558 | – | 954.37 ± 0.23 | 945.1 ± 0.25
x1 = 0.6924 | – | 959.03 ± 0.22 | 949.64 ± 0.23
x1 = 0.7003 | 1.11 ± 0.053 | – | –
x1 = 0.7684 | 0.826 ± 0.052 | – | –
x1 = 0.8727 | 0.479 ± 0.051 | – | –
x1 = 0.876 | – | 983.2 ± 0.16 | 973.86 ± 0.18
x1 = 0.9031 | – | 986.86 ± 0.16 | 977.39 ± 0.17
x1 = 0.9314 | 0.242 ± 0.051 | – | –
x1 = 0.9608 | – | 994.84 ± 0.14 | 985.42 ± 0.16
x1 = 1 | – | 1000.25 ± 0.13 | 990.67 ± 0.15

Cc1cccc(C)c1 [1,3-dimethylbenzene] + N#Cc1ccccc1
[3], x2 = 0
Details | mass density [kg/m3]
298.15 K | 859.68 ± 0.49
308.15 K | 850.01 ± 0.5

Cc1cccc(C)c1 [1,3-dimethylbenzene]
[1]
Details | mass density [kg/m3]
298.15 K | 859.68 ± 0.49
308.15 K | 850.01 ± 0.5

Details | molar heat capacity at constant pressure [J/K/mol]
[2] | 181.38 ± 0.37

Cc1ccc(C)c(C)c1 [1,2,4-trimethylbenzene]
[1]
Details | mass density [kg/m3]
298.15 K | 871.56 ± 0.48
308.15 K | 862.53 ± 0.49

Details | molar heat capacity at constant pressure [J/K/mol]
[2] | 213.02 ± 0.44

CCc1ccccc1 [ethylbenzene]
[1]
Details | mass density [kg/m3]
298.15 K | 862.41 ± 0.49
308.15 K | 852.72 ± 0.5

Details | molar heat capacity at constant pressure [J/K/mol]
[2] | 185.44 ± 0.38

Cc1ccc(C)cc1 [1,4-dimethylbenzene]
[1]
Details | mass density [kg/m3]
298.15 K | 856.48 ± 0.49
308.15 K | 846.98 ± 0.51

Details | molar heat capacity at constant pressure [J/K/mol]
[2] | 181.73 ± 0.37

N#Cc1ccccc1 [benzonitrile]
[1]
Details | mass density [kg/m3]
298.15 K | 1000.25 ± 0.13
308.15 K | 990.67 ± 0.15

Details | molar heat capacity at constant pressure [J/K/mol]
[2] | 166.41 ± 0.34

N#Cc1ccccc1 [benzonitrile] + COc1ccccc1
mass density [kg/m3], [3]
Details | 298.15 K | 308.15 K
x1 = 0.0168 | 989.23 ± 0.33 | 979.02 ± 0.34
x1 = 0.0762 | 990.08 ± 0.31 | 979.91 ± 0.32
x1 = 0.1199 | 990.69 ± 0.3 | 980.57 ± 0.31
x1 = 0.2462 | 992.32 ± 0.26 | 982.29 ± 0.27
x1 = 0.3042 | 993.03 ± 0.24 | 983.06 ± 0.25
x1 = 0.3614 | 993.71 ± 0.23 | 983.73 ± 0.24
x1 = 0.5068 | 995.35 ± 0.19 | 985.48 ± 0.21
x1 = 0.5823 | 996.16 ± 0.18 | 986.31 ± 0.19
x1 = 0.6772 | 997.14 ± 0.16 | 987.35 ± 0.18
x1 = 0.7832 | 998.21 ± 0.15 | 988.45 ± 0.16
x1 = 0.9105 | 999.44 ± 0.14 | 989.77 ± 0.15
x1 = 1 | 1000.25 ± 0.13 | 990.67 ± 0.15

Cc1ccc(C)cc1 [1,4-dimethylbenzene] + N#Cc1ccccc1
[3], x2 = 0
Details | mass density [kg/m3]
298.15 K | 856.48 ± 0.49
308.15 K | 846.98 ± 0.51
